According to patent US10597388B2, “Pyridazinone herbicides” (FMC CORPORATION, priority 2014, dated 2020):

Tests used:
Experiment in all cases: Test E greenhouse herbicide test, pre- and postemergence
Assay type in all cases: in vivo
[1] = test system: Italian ryegrass (Lolium multiflorum)
Summary of the method: (§1)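 Compounds in surfactant-containing solvent are applied to soil right after sowing (silt loam) and, in parallel, to 1- to 4-leaf plants in a peat-based medium. Weed control is scored visually on a 0 (none) to 100 (complete) scale at 14 to 21 d.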

[2] = test system: arrowleaf sida (Sida rhombifolia)
Summary of the method: as §1

[3] = test system: barnyardgrass (Echinochloa crus-galli)
Summary of the method: as §1

corn (Zea mays) = test system: corn (Zea mays)
Summary of the method: as §1

[4] = test system: dayflower (Virginia (VA) dayflower, Commelina virginica)
Summary of the method: as §1

[5] = test system: foxtail, green (green foxtail, Setaria viridis); details: Preemergence
Summary of the method: as §1

[6] = test system: johnsongrass (Sorghum halepense); details: Preemergence
Summary of the method: as §1

[7] = test system: lambsquarters (Chenopodium album); details: Preemergence
Summary of the method: as §1

[8] = test system: momingglory (Ipomoea coccinea); details: Preemergence
Summary of the method: as §1

[9] = test system: nutsedge, yellow (yellow nutsedge, Cyperus esculentus); details: Preemergence
Summary of the method: as §1

[10] = test system: pigweed, palmer (palmer pigweed, Amaranthus palmeri)
Summary of the method: as §1

soybean (Glycine max) = test system: soybean (Glycine max)
Summary of the method: as §1

[11] = test system: velvetleaf (Abutilon theophrasti); details: Preemergence
Summary of the method: as §1

[12] = test system: wild poinsettia (Euphorbia heterophylla)
Summary of the method: as §1

[13] = 62 g ai/ha, Postemergence, scale 0 to 100 (0 no effect, 100 complete control)
[14] = 62 g ai/ha, Preemergence, scale 0 to 100 (0 no effect, 100 complete control)
[15] = 125 g ai/ha, Postemergence, scale 0 to 100 (0 no effect, 100 complete control)
[16] = 125 g ai/ha, Preemergence, scale 0 to 100 (0 no effect, 100 complete control)
[17] = 250 g ai/ha, Postemergence, scale 0 to 100 (0 no effect, 100 complete control)
[18] = Postemergence, 31 g ai/ha, visual, scale 0 no effect to 100 complete control
[19] = Preemergence, 31 g ai/ha, scale 0 to 100, 0 no effect, 100 complete control
[20] = Preemergence, 250 g ai/ha, visual, scale 0 no effect to 100 complete control
[21] = Preemergence, 125 g ai/ha, visual, scale 0 no effect to 100 complete control
[22] = 62 g ai/ha, scale 0 to 100 (0 no effect, 100 complete control)
[23] = 31 g ai/ha, scale 0 to 100, 0 no effect, 100 complete control
[24] = 125 g ai/ha, visual, scale 0 no effect to 100 complete control
[25] = 250 g ai/ha, visual, scale 0 no effect to 100 complete control
[26] = 125 g ai/ha, scale 0 to 100 (0 no effect, 100 complete control)

CCc1sc2c(C)cc(C)cc2c1-c1c(O)c(C)nn(C)c1=O [Compound 57]
40: Plant response rating, Arrowleaf Sida [2, 15] | Plant response rating, Arrowleaf Sida [2, 20] | Plant response rating, Morningglory [8, 22] | Plant response rating, Pigweed, Palmer [10, 16]
30: Plant response rating, Dayflower, VA [4, 17] | Plant response rating, Dayflower, VA [4, 21] | Plant response rating, Johnsongrass [6, 22] | Plant response rating, Johnsongrass [6, 24] | Plant response rating, Nutsedge, Yellow [9, 22] | Plant response rating, Pigweed, Palmer [10, 15] | Plant response rating, Velvetleaf [11, 23] | Plant response rating, Poinsettia, Wild [12, 15]
90: Plant response rating, Barnyardgrass [3, 15] | Plant response rating, Barnyardgrass [3, 17] | Plant response rating, Foxtail, Green [5, 24]
10: Plant response rating, Ryegrass, Italian [1, 19] | Plant response rating, Arrowleaf Sida [2, 18] | Plant response rating, Corn (corn (Zea mays); [13]) | Plant response rating, Dayflower, VA [4, 18] | Plant response rating, Pigweed, Palmer [10, 18] | Plant response rating, Soybean (soybean (Glycine max); [17]) | Plant response rating, Soybean (soybean (Glycine max); [18]) | Plant response rating, Poinsettia, Wild [12, 13] | Plant response rating, Poinsettia, Wild [12, 18]
25: Plant response rating, Dayflower, VA [4, 14] | Plant response rating, Poinsettia, Wild [12, 16]
80: Plant response rating, Ryegrass, Italian [1, 20] | Plant response rating, Barnyardgrass [3, 18] | Plant response rating, Dayflower, VA [4, 20]
35: Plant response rating, Ryegrass, Italian [1, 14] | Plant response rating, Dayflower, VA [4, 15] | Plant response rating, Johnsongrass [6, 25] | Plant response rating, Pigweed, Palmer [10, 14] | Plant response rating, Pigweed, Palmer [10, 19]
0: Plant response rating, Ryegrass, Italian [1, 13] | Plant response rating, Ryegrass, Italian [1, 18] | Plant response rating, Arrowleaf Sida [2, 14] | Plant response rating, Arrowleaf Sida [2, 19] | Plant response rating, Barnyardgrass [3, 14] | Plant response rating, Barnyardgrass [3, 19] | Plant response rating, Corn (corn (Zea mays); [14]) | Plant response rating, Corn (corn (Zea mays); [19]) | Plant response rating, Corn (corn (Zea mays); [21]) | Plant response rating, Corn (corn (Zea mays); [20]) | Plant response rating, Dayflower, VA [4, 19] | Plant response rating, Foxtail, Green [5, 23] | Plant response rating, Johnsongrass [6, 23] | Plant response rating, Nutsedge, Yellow [9, 23] | Plant response rating, Soybean (soybean (Glycine max); [13]) | Plant response rating, Soybean (soybean (Glycine max); [14]) | Plant response rating, Soybean (soybean (Glycine max); [16]) | Plant response rating, Soybean (soybean (Glycine max); [19]) | Plant response rating, Poinsettia, Wild [12, 19]
60: Plant response rating, Nutsedge, Yellow [9, 26] | Plant response rating, Pigweed, Palmer [10, 17] | Plant response rating, Pigweed, Palmer [10, 20]
75: Plant response rating, Barnyardgrass [3, 21]
85: Plant response rating, Barnyardgrass [3, 13] | Plant response rating, Morningglory [8, 23]
95: Plant response rating, Velvetleaf [11, 26]
15: Plant response rating, Corn (corn (Zea mays); [15]) | Plant response rating, Corn (corn (Zea mays); [17]) | Plant response rating, Corn (corn (Zea mays); [18]) | Plant response rating, Dayflower, VA [4, 13] | Plant response rating, Soybean (soybean (Glycine max); [15])
45: Plant response rating, Arrowleaf Sida [2, 17]
50: Plant response rating, Ryegrass, Italian [1, 17] | Plant response rating, Arrowleaf Sida [2, 21] | Plant response rating, Poinsettia, Wild [12, 20]
65: Plant response rating, Ryegrass, Italian [1, 16] | Plant response rating, Velvetleaf [11, 22]
70: Plant response rating, Nutsedge, Yellow [9, 25]
20: Plant response rating, Ryegrass, Italian [1, 15] | Plant response rating, Arrowleaf Sida [2, 13] | Plant response rating, Foxtail, Green [5, 22] | Plant response rating, Pigweed, Palmer [10, 13] | Plant response rating, Soybean (soybean (Glycine max); [20]) | Plant response rating, Poinsettia, Wild [12, 14] | Plant response rating, Poinsettia, Wild [12, 17]
100: Plant response rating, Barnyardgrass [3, 20] | Plant response rating, Foxtail, Green [5, 25] | Plant response rating, Lambsquarters [7, 22] | Plant response rating, Lambsquarters [7, 23] | Plant response rating, Lambsquarters [7, 24] | Plant response rating, Lambsquarters [7, 25] | Plant response rating, Morningglory [8, 26] | Plant response rating, Morningglory [8, 25] | Plant response rating, Velvetleaf [11, 25]
